#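 Dose response: 5 concentrations. Exposure: 48 h. Format: 96-well plates. Endpoint: linear interpolation; highest concentration if not reached. GI50 = concentration required for 50% inhibition of growth. TGI: total growth inhibition.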
# Legend:
# Experiment in all cases: NCI tumour cell line growth inhibition, 48 h
# NCI-H23 lung = test system: NCI-H23 lung
# OVCAR-8 ovarian = test system: OVCAR-8 ovarian
# COLO 205 colon = test system: COLO 205 colon
# M14 melanoma = test system: M14 melanoma
# LOX IMVI melanoma = test system: LOX IMVI melanoma
# MOLT-4 leukemia = test system: MOLT-4 leukemia
# ACHN renal = test system: ACHN renal
# NCI/ADR-RES ovarian = test system: NCI/ADR-RES ovarian
# DU-145 prostate = test system: DU-145 prostate
# BT-549 breast = test system: BT-549 breast
SMILES,TGI (NCI-H23 lung) [µM],TGI (OVCAR-8 ovarian) [µM],TGI (COLO 205 colon) [µM],TGI (M14 melanoma) [µM],TGI (LOX IMVI melanoma) [µM],TGI (MOLT-4 leukemia) [µM],TGI (ACHN renal) [µM],GI50 (NCI-H23 lung) [µM],GI50 (NCI/ADR-RES ovarian) [µM],TGI (NCI/ADR-RES ovarian) [µM],GI50 (OVCAR-8 ovarian) [µM],GI50 (COLO 205 colon) [µM],GI50 (M14 melanoma) [µM],GI50 (LOX IMVI melanoma) [µM],GI50 (MOLT-4 leukemia) [µM],GI50 (ACHN renal) [µM],GI50 (DU-145 prostate) [µM],TGI (DU-145 prostate) [µM],GI50 (BT-549 breast) [µM],TGI (BT-549 breast) [µM]
COc1ccc(NC(=O)CC(=O)n2nc(C)c(N=Nc3ccccc3C(=O)O)c2C)cc1,> 100,> 100,> 100,> 100,> 100,> 100,–,–,–,–,–,–,–,–,–,–,–,–,–,–
Cn1cc(C(=O)c2ccccc2)cc(C(=O)c2ccccc2)c1=O,> 100,> 100,> 100,> 100,> 100,> 100,> 100,–,–,–,–,–,–,–,–,–,–,–,–,–
COc1cccc(SSc2cccc(OC)c2C(=O)O)c1C(=O)O,> 100,> 100,> 100,> 100,> 100,> 100,> 100,–,–,–,–,–,–,–,–,–,–,–,–,–
COc1cc2ccnc3c(=C(SC)SC)c(=O)c(c1OC)c23,–,22.7,10.5,28.3,10.7,23.8,26,–,–,–,–,–,–,–,–,–,–,–,–,–
Cc1nc2ccccc2nc1N=Nc1ccccc1,51.1,> 100,1.91,44.8,> 100,43.2,> 100,14.4,16,57.6,22.4,0.291,17.7,23.3,14.9,16.9,36.1,> 100,–,–
CC(=O)c1ccc(NC(=O)COC(=O)c2cccc3c(=O)c4ccccc4[nH]c23)cc1,> 100,> 100,> 100,> 100,51.5,> 100,> 100,–,–,–,–,–,–,–,–,–,–,–,–,–
O=C1OC(=O)C2C3C=CC(C12)C1C2C=CC2C31 (stereo not given),> 100,> 100,> 100,–,> 100,> 100,> 100,–,–,–,–,–,–,–,–,–,–,–,–,–
COc1ccc(-c2csc(NC(=O)CN3CCN(c4cc5c(cc4F)c(=O)c(C(=O)O)cn5C4CC4)CC3)n2)cc1,> 100,> 100,–,> 100,–,–,> 100,2.9,–,–,3.2,–,4.1,–,–,3.25,3.35,> 100,3.03,> 100
O=c1cccc(-c2cccc(=O)[nH]2)[nH]1,> 100,> 100,> 100,> 100,> 100,> 100,> 100,–,–,–,–,–,–,–,–,–,–,–,–,–
Cl.Fc1c[c-]c(-c2ccccn2)c(F)c1.[Pt].c1ccc([PH+](C[PH+](c2ccccc2)c2ccccc2)c2ccccc2)cc1,–,1.73,–,1.02,–,–,0.463,–,1.61,5.84,0.303,–,0.314,–,–,0.218,0.355,1.33,–,–
CCOC(=O)Nc1cc2ccccc2c(N=Nc2ccccc2)c1O,> 100,> 100,> 100,> 100,–,> 100,> 100,–,–,> 100,–,–,–,–,–,–,–,> 100,–,> 100
Cc1ccc(S(=O)(=O)N/N=C/C(C)C)cc1,> 100,> 100,> 100,> 100,> 100,> 100,> 100,–,–,–,–,–,–,–,–,–,–,–,–,–
COC(=O)C(C(=O)OC)C(Br)C(Br)C(Br)c1ccccc1 (stereo not given),–,17.2,4.62,27.5,3.34,16.8,7.16,–,17.8,42.4,4.86,2.14,12.9,1.5,4.11,2.8,10.6,23,14.4,27.9
COc1ccc(CCN2CCC(CN(C)Cc3cnn(-c4ccccc4)c3)CC2)cc1,> 100,37.5,11.7,–,24.8,66.7,33,29.8,26.7,> 100,16.5,3.42,–,12.1,12.8,10.9,37,> 100,14.5,36.2
N#CC1=C(O)NC(O)=C(C#N)C1c1ccc(C2C(C#N)=C(O)NC(O)=C2C#N)cc1,> 100,> 100,63.1,> 100,> 100,> 100,> 100,–,–,–,–,–,–,–,–,–,–,–,–,–
Cc1ccc(C2NC(=O)c3ccccc3N2)c(C)c1 (stereo not given),> 87,> 71.5,14.2,40,> 100,> 100,> 100,–,–,6.5,–,–,–,–,–,–,–,> 100,–,–
OCCN(CCO)c1cccc(N(CCO)CCO)n1,–,> 100,> 100,> 100,> 100,> 100,> 100,–,–,–,–,–,–,–,–,–,–,–,–,–
Cc1ccc(NC(=O)CCc2n[nH]c(=S)o2)cc1,> 100,> 100,> 100,> 100,> 100,> 100,> 100,–,–,–,–,–,–,–,–,–,–,–,–,–
CCCCCCNCc1cc(C(C)(C)C)cc(CNCCCCCC)c1O,3.29,3.37,3.07,3.18,2.94,3.84,2.97,1.71,1.75,3.24,1.75,1.67,1.75,1.58,1.84,1.62,1.8,3.21,–,–
Cc1c2c(c(C)c3c1[nH]c1ccccc13)CN(C)CC2,56.3,37.7,28.6,28.4,29.3,> 100,35.7,–,–,–,–,–,–,–,–,–,–,–,–,–
CC1SC2(CCCCC2)N(NC(=O)c2[nH]c3ccc(Br)cc3c2-c2ccccc2)C1=O (stereo not given),> 100,53.8,> 100,> 100,> 100,> 100,> 100,30.7,–,–,17,> 100,64,92.7,3.95,61.3,> 100,> 100,> 100,> 100
